Experimental data published in PubChem BioAssay (NCI).
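Cells were grown in 96-well plates and exposed to each compound for 48 hours at five concentrations; endpoints were interpolated linearly between bracketing concentrations, or set to the highest concentration if not reached. Definition used: TGI = concentration required for complete inhibition of growth.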

Legend:
Assay in all cases: NCI-60 cell line screen, 48 h
[1] = tested on: COLO 205 colon
[2] = tested on: OVCAR-8 ovarian
[3] = tested on: BT-549 breast
[4] = tested on: HOP-92 NSCLC
[5] = tested on: SNB-19 CNS
[6] = tested on: HL-60(TB) leukemia
[7] = tested on: HCT-15 colon
[8] = tested on: HS 578T breast
[9] = tested on: OVCAR-4 ovarian
[10] = tested on: SK-MEL-28 melanoma
[11] = tested on: RPMI-8226 leukemia
[12] = tested on: SNB-75 CNS
[13] = tested on: A549 NSCLC
[14] = tested on: HT29 colon
[15] = tested on: A498 renal
[16] = tested on: OVCAR-3 ovarian
[17] = tested on: NCI-H460 lung
[18] = tested on: MDA-MB-435
[19] = tested on: U251 CNS
[20] = tested on: ACHN renal
[21] = tested on: SK-MEL-5 melanoma
[22] = tested on: MOLT-4 leukemia
[23] = tested on: SN12C renal
[24] = tested on: SF-268 CNS
[25] = tested on: TK-10 renal
[26] = tested on: MDA-N
[27] = tested on: UO-31 renal
[28] = tested on: CAKI-1 renal
[29] = tested on: PC-3 prostate
[30] = tested on: SW-620 colon
[31] = tested on: SK-MEL-2 melanoma
[32] = tested on: MDA-MB-231 breast
[33] = tested on: T-47D breast
[34] = tested on: EKVX NSCLC
[35] = tested on: NCI/ADR-RES ovarian
[36] = tested on: K-562 leukemia
[37] = tested on: NCI-H522 lung
[38] = tested on: OVCAR-5 ovarian
[39] = tested on: NCI-H23 lung
[40] = tested on: NCI-H226 lung
[41] = tested on: IGROV1 ovarian
[42] = tested on: M14 melanoma
[43] = tested on: DU-145 prostate
[44] = tested on: UACC-257 melanoma
[45] = tested on: HCC-2998 colon
[46] = tested on: HOP-62 NSCLC
[47] = tested on: MALME-3M melanoma
[48] = tested on: SF-539 CNS
[49] = tested on: CCRF-CEM leukemia
[50] = tested on: HCT-116 colon
[51] = tested on: UACC-62 melanoma
[52] = tested on: SR leukemia
[53] = tested on: RXF 393 renal
[54] = tested on: SK-OV-3 ovarian
[55] = tested on: LOX IMVI melanoma
[56] = tested on: SF-295 CNS
[57] = tested on: MCF7 breast
[58] = tested on: KM12 colon
[59] = tested on: 786-0 renal

Measured: TGI

COC(=O)/C=C\n1ncc(=O)[nH]c1=O
not listed: [48] | [49] | [50] | [51] | [52] | [53] | [54] | [55] | [56] | [57] | [58] | [59]
> 100 µM: all other assays above

CC1(C)CC(=O)C(Cc2ccccc2)(Cc2ccccc2)C(=O)C1
not listed: [4] | [11] | [15] | [16] | [18]
> 100 µM: all other assays above

O=[N+]([O-])c1ccc(N=Nc2c(O)ccc3cc(S(=O)(=O)O)cc(S(=O)(=O)O)c23)cc1
not listed: [6] | [17] | [45] | [48] | [57]
> 100 µM: all other assays above
